Test results taken from patent publication US10681909B2, “Herbicidal triazoles” (FMC Corporation, priority 2014, dated 2020).

Experiments:
oilseed rape [1] = experiment: Test D postemergence; type: in vivo, Brassica napus; conditions: scale 0 to 100
From the text: (§1) Seeds of plant species selected from bluegrass (annual bluegrass, Poa annua), blackgrass (Alopecurus myosuroides), canarygrass (Phalaris minor), chickweed (common chickweed, Stellaria media), galium (catchweed bedstraw, Galium aparine), bromegrass, down (downy bromegrass, Bromus tectorum), Russian thistle (Salsola kali), field poppy (Papaver rhoeas), field violet (Viola arvensis), foxtail, green (green foxtail, Setaria viridis), deadnettle (henbit deadnettle, Lamium amplexicaule), ryegrass, Ital. (Italian ryegrass, Lolium multiflorum), kochia (Kochia scoparia), lambsquarters (Chenopodium album), oilseed rape (Brassica napus), pigweed (Amaranthus retroflexus), chamomile (scentless chamomile, Matricaria inodora), speedwell (bird's-eye speedwell, Veronica persica), barley, spring (spring barley, Hordeum vulgare), wheat, spring (spring wheat, Triticum aestivum), buckwheat, wild (wild buckwheat, Polygonum convolvulus), wild mustard (Sinapis arvensis), oat, wild (wild oat, Avena fatua), radish, wild (wild radish, Raphanus raphanistrum), […]), barley, winter (winter barley, Hordeum vulgare), and wheat, winter (winter wheat, Triticum aestivum) were planted into a silt loam soil and treated preemergence with test chemicals formulated in a non-phytotoxic solvent mixture which included a surfactant. At the same time, these species were planted in pots containing Sunshine Redi-Earth® planting medium comprising spaghnum peat moss, vermiculite, starter nutrients and dolomitic limestone and treated with postemergence applications of the test chemicals formulated in the same manner. Plants ranged in height from 2 to 18 cm (1- to 4-leaf stage). Treated plants and controls were maintained in a controlled growth environment for 14 to 21 d after which time all species were compared to controls and visually evaluated. […] A dash (-) response means no test result.

oat, wild = experiment: Test D preemergence; type: in vivo, Avena fatua; conditions: scale 0 to 100
From the text: as §1

galium [2] = experiment: Test D postemergence; type: in vivo, Galium aparine; conditions: scale 0 to 100
From the text: as §1

radish, wild = experiment: Test D postemergence; type: in vivo, Raphanus raphanistrum; conditions: scale 0 to 100
From the text: as §1

buckwheat, wild = experiment: Test D postemergence; type: in vivo, Polygonum convolvulus; conditions: scale 0 to 100
From the text: as §1

wheat, winter = experiment: Test D preemergence; type: in vivo, Triticum aestivum; conditions: scale 0 to 100
From the text: as §1

wheat, spring = experiment: Test D preemergence; type: in vivo, Triticum aestivum; conditions: scale 0 to 100
From the text: as §1

velvetleaf = experiment: Test A postemergence; type: in vivo, Abutilon theophrasti; conditions: Abutilon theophrasti, post-emergence, 240 h, 0 to 100 scale (0 no effect, 100 complete control), approx. 10 d, read-out: Plant response rating, Velvetleaf; for pest or weed control at 125 g/ha: 125 g ai/ha; for pest or weed control at 500 g/ha: 500 g ai/ha
In short: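 Test chemicals in a non-phytotoxic solvent with surfactant were applied as a directed soil spray preemergence to seeds sown in loam/sand. Postemergence sprays went to plants 2–10 cm tall at the one- to two-leaf stage. A dash means no result.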

oilseed rape [3] = experiment: Test D preemergence; type: in vivo, Brassica napus; conditions: scale 0 to 100
From the text: as §1

galium [4] = experiment: Test D preemergence; type: in vivo, Galium aparine; conditions: scale 0 to 100
From the text: as §1

ryegrass, Italian = experiment: Test A preemergence; type: in vivo, Lolium multiflorum; conditions: 0 to 100 scale (0 no effect, 100 complete control)
From the text: (§2) Seeds of plant species selected from barnyardgrass (Echinochloa crus-galli), crabgrass, large (large crabgrass, Digitaria sanguinalis), kochia (Kochia scoparia), ragweed (common ragweed, Ambrosia elatior), foxtail, giant (giant foxtail, Setaria faberii), morningglory (Ipomoea spp.), pigweed (Amaranthus retroflexus), velvetleaf (Abutilon theophrasti), ryegrass, Italian (Italian ryegrass, Lolium multiflorum), wheat (Triticum aestivum), and corn (Zea mays) were planted into a blend of loam soil and sand and treated preemergence with a directed soil spray using test chemicals formulated in a non-phytotoxic solvent mixture which included a surfactant.
(§3) At the same time, plants selected from these crop and weed species and also blackgrass (Alopecurus myosuroides), and galium (catchweed bedstraw, Galium aparine), were planted in pots containing the same blend of loam soil and sand and treated with postemergence applications of test chemicals formulated in the same manner. Plants ranged in height from 2 to 10 cm and were in the one- to two-leaf stage for the postemergence treatment. Treated plants and untreated controls were maintained in a greenhouse for approximately 10 d, after which time all treated plants were compared to untreated controls and visually evaluated for injury. Plant response ratings, summarized in Table A, are based on a 0 to 100 scale where 0 is no effect and 100 is complete control. A dash (-) response means no test result.

blackgrass = experiment: Test A postemergence; type: in vivo, Alopecurus myosuroides; conditions: 0 to 100 scale (0 no effect, 100 complete control), approx. 10 d
From the text: as §2, §3

kochia = experiment: Test A postemergence; type: in vivo, Kochia scoparia; conditions: 0 to 100 scale (0 no effect, 100 complete control), approx. 10 d
From the text: as §2, §3

SMILES: CCc1nc(-c2ccc(C(F)(F)F)cc2)nn1Cc1ccnc(C(F)(F)F)c1 [Compound 1, 4-[[5-ethyl-3-[4-(trifluoromethyl)phenyl]-1H-1,2,4-triazol-1-yl]methyl]-2-(trifluoromethyl)pyridine]
- Plant response rating: Oilseed Rape (oilseed rape [1]; 31 g ai/ha): 70
- Plant response rating: Oilseed Rape (oilseed rape [1]; 62 g ai/ha): 80
- Plant response rating: Oilseed Rape (oilseed rape [1]; 125 g ai/ha): 100
- Plant response rating: Oilseed Rape (oilseed rape [1]; 250 g ai/ha): 100
- Plant response rating: Oat, Wild (oat, wild; 62 g ai/ha): 0
- Plant response rating: Oat, Wild (oat, wild; 125 g ai/ha): 15
- Plant response rating: Oat, Wild (oat, wild; 250 g ai/ha): 45
- Plant response rating: Galium (galium [2]; 31 g ai/ha): 70
- Plant response rating: Galium (galium [2]; 62 g ai/ha): 70
- Plant response rating: Galium (galium [2]; 125 g ai/ha): 90
- Plant response rating: Galium (galium [2]; 250 g ai/ha): 90
- Plant response rating: Radish, Wild (radish, wild; 31 g ai/ha): 75
- Plant response rating: Radish, Wild (radish, wild; 62 g ai/ha): 100
- Plant response rating: Radish, Wild (radish, wild; 125 g ai/ha): 95
- Plant response rating: Radish, Wild (radish, wild; 250 g ai/ha): 95
- Plant response rating: Buckwheat, Wild (buckwheat, wild; 31 g ai/ha): 60
- Plant response rating: Buckwheat, Wild (buckwheat, wild; 62 g ai/ha): 80
- Plant response rating: Buckwheat, Wild (buckwheat, wild; 125 g ai/ha): 100
- Plant response rating: Buckwheat, Wild (buckwheat, wild; 250 g ai/ha): 100
- Plant response rating: Wheat, Winter (wheat, winter; 62 g ai/ha): 0
- Plant response rating: Wheat, Winter (wheat, winter; 125 g ai/ha): 0
- Plant response rating: Wheat, Winter (wheat, winter; 250 g ai/ha): 0
- Plant response rating: Wheat, Spring (wheat, spring; 62 g ai/ha): 0
- Plant response rating: Wheat, Spring (wheat, spring; 125 g ai/ha): 0
- Plant response rating: Wheat, Spring (wheat, spring; 250 g ai/ha): 5
- pest or weed control at 125 g/ha (velvetleaf): 90%
- pest or weed control at 500 g/ha (velvetleaf): 100%
- Plant response rating: Oilseed Rape (oilseed rape [3]; 62 g ai/ha): 100
- Plant response rating: Oilseed Rape (oilseed rape [3]; 125 g ai/ha): 100
- Plant response rating: Oilseed Rape (oilseed rape [3]; 250 g ai/ha): 100
- Plant response rating: Galium (galium [4]; 125 g ai/ha): 60
- Plant response rating: Galium (galium [4]; 250 g ai/ha): 100

SMILES: Cn1nc(-c2ccc(F)cc2)nc1Oc1cccc(C(F)(F)F)c1 [Compound 5, 3-(4-fluorophenyl)-1-methyl-5-[3-(trifluoromethyl)phenoxy]-1H-1,2,4-triazole]
- pest or weed control at 125 g/ha (velvetleaf): 30%
- pest or weed control at 500 g/ha (velvetleaf): 60%

SMILES: CCCc1nc(-c2ccc(F)cc2)nn1Cc1ccnc(C(F)(F)F)c1 [Compound 6, 4-[[3-(4-fluorophenyl)-5-propyl-1H-1,2,4-triazol-1-yl]methyl]-2-(trifluoromethyl)pyridine]
- pest or weed control at 125 g/ha (velvetleaf): 90%
- pest or weed control at 500 g/ha (velvetleaf): 100%

SMILES: COc1nc(-c2ccc(F)cc2)nn1Cc1ccnc(C(F)(F)F)c1 [Compound 9, 4-[[3-(4-fluorophenyl)-5-methoxy-1H-1,2,4-triazol-1-yl]methyl]-2-(trifluoromethyl)pyridine]
- pest or weed control at 125 g/ha (velvetleaf): 50%
- pest or weed control at 500 g/ha (velvetleaf): 90%

SMILES: Cn1nc(-c2ccc(F)cc2)nc1C(O)c1ccnc(C(F)(F)F)c1 (stereo not drawn) [Compound 14, α-[3-(4-fluorophenyl)-1-methyl-1H-1,2,4-triazol-5-yl]-2-(trifluoromethyl)-4-pyridinemethanol]
- pest or weed control at 125 g/ha (velvetleaf): 30%
- pest or weed control at 500 g/ha (velvetleaf): 50%

SMILES: CCn1nc(-c2ccc(F)cc2)nc1C(O)c1ccnc(C(F)(F)F)c1 (stereo not drawn) [Compound 15, α-[1-Ethyl-3-(4-fluorophenyl)-1H-1,2,4-triazol-5-yl]-2-(trifluoromethyl)-4-pyridinemethanol]
- pest or weed control at 125 g/ha (velvetleaf): 0%
- pest or weed control at 500 g/ha (velvetleaf): 0%

SMILES: CCCn1nc(-c2ccc(F)cc2)nc1Cc1ccnc(C(F)(F)F)c1 [Compound 17, 4-[[3-(4-fluorophenyl)-1-propyl-1H-1,2,4-triazol-5-yl]methyl]-2-(trifluoromethyl)pyridine]
- pest or weed control at 125 g/ha (velvetleaf): 90%
- pest or weed control at 500 g/ha (velvetleaf): 100%

SMILES: CCn1nc(-c2ccc(F)cc2)nc1C(=O)c1ccnc(C(F)(F)F)c1 [Compound 19, [1-ethyl-3-(4-fluorophenyl)-1H-1,2,4-triazol-5-yl][2-(trifluoromethyl)-4-pyridinyl]methanone]
- pest or weed control at 125 g/ha (velvetleaf): 0%
- pest or weed control at 500 g/ha (velvetleaf): 0%

SMILES: COc1nc(-c2ccc(C(F)(F)F)cc2)nn1Cc1ccnc(C(F)(F)F)c1 [Compound 25]
- Plant response rating, Ryegrass, Italian (ryegrass, Italian; 31 g ai/ha): 0
- Plant response rating, Ryegrass, Italian (ryegrass, Italian; 125 g ai/ha): 50
- Plant response rating, Blackgrass (blackgrass; 31 g ai/ha): 10
- Plant response rating, Blackgrass (blackgrass; 125 g ai/ha): 30
- Plant response rating, Kochia (kochia; 31 g ai/ha): 90
- Plant response rating, Kochia (kochia; 125 g ai/ha): 90

SMILES: CCOc1nc(-c2ccc(Cl)cc2)nn1Cc1ccnc(C(F)(F)F)c1 [Compound 26]
- Plant response rating, Ryegrass, Italian (ryegrass, Italian; 31 g ai/ha): 40
- Plant response rating, Ryegrass, Italian (ryegrass, Italian; 125 g ai/ha): 100
- Plant response rating, Blackgrass (blackgrass; 31 g ai/ha): 30
- Plant response rating, Blackgrass (blackgrass; 125 g ai/ha): 50
- Plant response rating, Kochia (kochia; 31 g ai/ha): 80
- Plant response rating, Kochia (kochia; 125 g ai/ha): 90

SMILES: CS(=O)(=O)c1nc(-c2ccc(F)cc2)nn1Cc1ccnc(C(F)(F)F)c1 [Compound 29, 4-[[3-(4-fluorophenyl)-5-(methylsulfonyl)-1H-1,2,4-triazole-1-yl]methyl]-2-(trifluoromethyl)pyridine]
- pest or weed control at 125 g/ha (velvetleaf): 0%
- pest or weed control at 500 g/ha (velvetleaf): 0%

SMILES: COc1nc(-c2ccccc2)nn1Cc1ccnc(C(F)(F)F)c1 [Compound 32]
- Plant response rating, Ryegrass, Italian (ryegrass, Italian; 125 g ai/ha): 40
- Plant response rating, Ryegrass, Italian (ryegrass, Italian; 500 g ai/ha): 60
- Plant response rating, Blackgrass (blackgrass; 125 g ai/ha): 20
- Plant response rating, Blackgrass (blackgrass; 500 g ai/ha): 50
- Plant response rating, Kochia (kochia; 125 g ai/ha): 80
- Plant response rating, Kochia (kochia; 500 g ai/ha): 90

SMILES: CCCOc1nc(-c2ccccc2)nn1Cc1ccnc(C(F)(F)F)c1 [Compound 33]
- Plant response rating, Ryegrass, Italian (ryegrass, Italian; 125 g ai/ha): 30
- Plant response rating, Ryegrass, Italian (ryegrass, Italian; 500 g ai/ha): 60
- Plant response rating, Blackgrass (blackgrass; 125 g ai/ha): 30
- Plant response rating, Blackgrass (blackgrass; 500 g ai/ha): 50
- Plant response rating, Kochia (kochia; 125 g ai/ha): 90
- Plant response rating, Kochia (kochia; 500 g ai/ha): 90
